Data: paper PMC9937538 (Journal of Medicinal Chemistry, 2022)
Values after ≈ are worked out from the molar mass of the structure shown. Values joined by “and” are separate entries in the source; they are usually repeats but may differ in a detail not shown here. Equal values may be shown once.

Columns and labels:
[1] = target: T1, purified recombinant human DPP IV (Homo sapiens, UniProt P27487); test: In vitro DPP IV activity assay (fluorogenic Gly-Pro-AMC substrate); assay type: biochemical; details: mean from three different assays
T1 construct: purchased Cayman Chemicals (Michigan)
Description: The DPP IV inhibition activities of the entire sets of compounds were carried out on purified recombinant human DPP IV using conditions previously optimized.[35]
Four independent in vitro experiments were carried out, and each of those was performed in triplicate in a white half-volume 96-well solid plate. […] Afterward, the samples were mixed and 50 μL was transferred to each plate well. Each reaction was started by adding 50 μL of the substrate solution (200 μM H-Gly-Pro-7-amido-4-methylcoumarin (AMC)) to each well and incubated at 37 °C for 30 min. […] The DPP IV enzyme and the substrate solution were provided by Cayman Chemicals (Michigan).

human cloned α1a-AR = target: T2, human cloned α1a-AR (Homo sapiens, UniProt P35348); test: α1a-AR binding assay ([3H]prazosin displacement); details: human cloned α1a-AR expressed in HEK293 cells
T2 construct: expressed in transfected cells
T2 sequence (P35348 1-466): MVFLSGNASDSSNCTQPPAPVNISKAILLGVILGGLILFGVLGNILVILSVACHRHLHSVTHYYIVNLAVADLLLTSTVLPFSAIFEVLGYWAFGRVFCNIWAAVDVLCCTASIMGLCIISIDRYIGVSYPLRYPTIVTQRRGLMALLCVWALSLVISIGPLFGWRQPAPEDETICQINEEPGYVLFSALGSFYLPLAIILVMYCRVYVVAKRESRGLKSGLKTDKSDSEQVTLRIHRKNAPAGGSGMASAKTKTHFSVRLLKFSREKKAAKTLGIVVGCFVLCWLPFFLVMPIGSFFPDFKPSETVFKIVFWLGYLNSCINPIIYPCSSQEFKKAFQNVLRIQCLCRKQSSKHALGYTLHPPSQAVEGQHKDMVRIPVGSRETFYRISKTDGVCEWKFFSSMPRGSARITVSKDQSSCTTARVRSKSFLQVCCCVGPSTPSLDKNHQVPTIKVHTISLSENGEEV
Text: Since WB-4101 is a potent α1 antagonist, this adrenoreceptor subtype was chosen to assess the loss of adrenergic affinity.
Figure S3. […] Curves […]
from single experiments were fitted using the standard four parameter logistic equation and represent the mean ± S.E.M. of 4 observations, 2 experi-ments. X-axis: Log concentrations of competitive test compounds. Y-axis: normalized [3H]prazosin Bound/Total bound.
In the table are reported the affinity constants, expressed as pKi (-log Ki), of compounds 11, 12 and WB-4101 for human cloned α1a-AR expressed in HEK293 cells. The values represent the arithmetic mean ± S.E.M. of 4 observations, 2 experiments.
ND, not determinable; NA, not available.
Note: data generated from binding assays were analyzed using Prism 5.02 (GraphPad Software Inc., San Diego, CA) and were fitted to a parametric function to derive best estimates of the IC50 and slope factor (nH); IC50 values were then converted to binding constant Ki according to Cheng-Prus- […]
The details on the α1a-AR binding assay have been described before2.
(1 picture or pasted object on this page, not shown here)

[2] = target: T3, DPP IV activity expressed by nondifferentiated Caco-2 cells (Homo sapiens, UniProt P27487); assay type: cell-based
T3 construct: Caco-2 cells that express high levels of DPP IV on their cellular membranes; endogenous in cells; host or cells: Caco-2 cells (INSERM, Paris)
Description: The data are represented as the means ± standard deviation (SD) of three independent experiments, performed in triplicate. Statistical analysis was performed by one-way analysis of variance (ANOVA), followed by Tukey’s post hoc test. ns: not significant; (**), p < 0.01, (****) p < 0.0001; C: control cells.
A total of 3 × 10^4 Caco-2 cells/well were seeded in black 96-well plates with clear bottoms.

[3] = Solubility in phosphate-buffered saline (LC-MS/MS); assay type: physicochemical; details: pH 7.4, read-out: soluble concentration
Description: The solubility of compound 12 was determined in phosphate-buffered saline at a pH of 7.4 through a suitable liquid chromatography and tandem mass spectrometry (LC-MS/MS) method, as described in the Experimental Section.

[4] = Hepatic microsome stability; assay type: in vitro ADME; details: after 120 min of incubation
Description: To predict the metabolic fate as well as the susceptibility of compound 12 to phase I metabolism following the in vivo administration, it was incubated with human (Sekisui XenoTech, LLC), CD-1 mouse (BioIVT), and Sprague-Dawley (SD) rat liver microsomes (Corning), as described in the Experimental Section.

Caco-2 cells [5] = test: Uptake by Caco-2 cells (intrinsic fluorescence, normalized with Janus Green); assay type: in vitro ADME, human; details: 1.0 μM
Description: The ability of compound 12 to be uptaken by Caco-2 cells was assessed, exploiting its natural behavior to emit fluorescence at 313 nm after excitation at 250 nm using a fluorescent plate reader. […] Fluorescence signals emitted at 313 nm by the compound localized at the intracellular level as a function of time have been normalized for the total amount of cells stained using Janus Green (OD 595 nm); therefore, the relative fluorescence unit (RFU) 313/595 nm after 15, 30, and 60 min of incubation was calculated. The RFU 313/595 nm of the blank samples, which represents the cellular background, was subtracted from each normalized fluorescence signal. […] In particular, compound 12 is absorbed by Caco-2 cells up to 2874 ± 383.1, 4562 ± 993.2, and 6250 ± 1163RFU after 15, 30, and 60 min, respectively (Figure 7).

Caco-2 cells [6] = test: MTT assay; assay type: cell-based, human; details: 10^–8 to 10^–5 M, 48 h
Description: (§1) The cytotoxicity of the active compound 12 was determined. Cell viability was assessed by the quantitative colorimetric method of the MTT reduction on Caco-2 and HepG2 cells.
(§2) A total of 3 × 10^4 Caco-2 and HepG2 cells/well were seeded in 96-well plates and treated with 11 and 12 from 10^–8 to 10^–5 M or vehicle (H2O) in complete growth media for 48 h at 37 °C under a 5% CO2 atmosphere. Subsequently, the treatment solvent was aspirated and 100 μL/well of 3-(4,5-dimethylthiazol-2-yl)-2,5-diphenyltetrazolium bromide (MTT) filtered solution was added. After 2 h of incubation at 37 °C under a 5% CO2 atmosphere, 0.5 mg/mL solution was aspirated and 100 μL/well of the lysis buffer (8 mM HCl + 0.5% NP-40 in DMSO) was added. After 10 min of slow shaking, the absorbance at 575 nm was read on a Synergy H1 fluorescence plate reader (Biotek, Bad Friedrichshall, Germany).

HepG2 cells = test: MTT assay; assay type: cell-based, human; details: 10^–8 to 10^–5 M, 48 h
Description: as §1, §2

hCA IX = hCA IX (Homo sapiens, UniProt Q16790); test: CA inhibition, stopped-flow CO2 hydration assay; details: read-out: Ki CA IX; stopped-flow technique, mean from three assays
Description: An applied photophysics stopped-flow instrument was used for assaying the CA-catalyzed CO2 hydration activity.[37]
The uncatalyzed rates were determined in the same manner and subtracted from the total observed rates. Stock solutions of the inhibitor (0.1 mM) were prepared in distilled–deionized water, and dilutions up to 0.01 nM were done thereafter with the assay buffer. Inhibitor and enzyme solutions were preincubated together for 15 min at room temperature prior to the assay to allow for the formation of the E–I complex. The inhibition constants were obtained by nonlinear least-squares methods using PRISM 3 and the Cheng–Prusoff equation, as reported earlier, and represent the mean from at least three different determinations. All CA isoforms were recombinant proteins obtained in-house, as reported earlier.[44]−[46]

T3 sequence (P27487 whole entry): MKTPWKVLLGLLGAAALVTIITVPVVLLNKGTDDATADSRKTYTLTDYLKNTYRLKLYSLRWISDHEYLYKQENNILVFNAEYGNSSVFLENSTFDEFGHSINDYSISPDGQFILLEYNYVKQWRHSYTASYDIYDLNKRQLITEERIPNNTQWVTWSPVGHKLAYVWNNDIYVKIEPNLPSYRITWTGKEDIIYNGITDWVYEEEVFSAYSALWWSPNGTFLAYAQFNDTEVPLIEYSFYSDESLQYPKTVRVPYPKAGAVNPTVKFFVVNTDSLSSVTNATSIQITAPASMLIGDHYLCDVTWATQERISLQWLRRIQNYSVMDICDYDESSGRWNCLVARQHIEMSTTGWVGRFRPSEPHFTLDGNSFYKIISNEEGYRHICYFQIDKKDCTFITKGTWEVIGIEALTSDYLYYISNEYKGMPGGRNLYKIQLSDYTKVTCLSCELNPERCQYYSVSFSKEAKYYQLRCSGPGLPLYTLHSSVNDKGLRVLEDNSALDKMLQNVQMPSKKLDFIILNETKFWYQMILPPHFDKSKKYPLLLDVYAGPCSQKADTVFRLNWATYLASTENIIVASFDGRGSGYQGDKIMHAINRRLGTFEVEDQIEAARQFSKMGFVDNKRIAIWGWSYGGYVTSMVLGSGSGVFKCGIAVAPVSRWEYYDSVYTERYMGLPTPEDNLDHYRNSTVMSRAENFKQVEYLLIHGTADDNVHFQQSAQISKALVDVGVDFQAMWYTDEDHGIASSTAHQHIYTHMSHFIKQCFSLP
T1 sequence (P27487 whole entry): as above

NC(CCOc1ccc(S(N)(=O)=O)cc1)C1COc2ccccc2O1 (centres unmarked) [Compound 12, 4-(3-Amino-3-(1,4-benzodioxan)propoxy)benzenesulfonamide]
IC50 [1]: 49 ± 4.5 nM | nH α1a-AR (slope factor) (human cloned α1a-AR): 0.97 ± 0.27 | pKi α1a-AR (human cloned α1a-AR; mean ± S.E.M.): 6.61 | inhibition of cellular DPP IV activity vs untreated cells [2]: 60.65 ± 4.92% and 71.86 ± 4.27% | solubility [3]: 224 µM (≈ 81.6 µg/mL) | compound remaining ([4]; human liver microsomes): 72.6% | compound remaining ([4]; mouse liver microsomes): 27.5% | compound remaining ([4]; rat liver microsomes): 16.7% | intracellular fluorescence RFU 313/595 nm (uptake) (Caco-2 cells [5]; 15 min): 2874 ± 383.1 RFU | intracellular fluorescence RFU 313/595 nm (uptake) (Caco-2 cells [5]; 30 min): 4562 ± 993.2 RFU | intracellular fluorescence RFU 313/595 nm (uptake) (Caco-2 cells [5]; 60 min): 6250 ± 1163 RFU | cell viability (MTT reduction) (Caco-2 cells [6]): maintain their metabolic activity | cell viability (MTT reduction) (HepG2 cells): maintain their metabolic activity | Ki (hCA IX): 133 nM
